Measured values published in US20250059172A1, “INDAZOLE COMPOUND AND PHARMACEUTICAL” (NIPPON SHINYAKU CO., LTD., priority 2021, published 2025).
Counter-ions that a name gives are not always drawn.

How the values were obtained:
human mPGES-1 = human mPGES-1 (Homo sapiens (Human), UniProt O14684); test: mPGES-1 inhibitory activity test; type: biochemical; conditions: for inhibition at 0.01 µM: 10 nM test compound; for inhibition at 0.1 µM: 100 nM test compound; for IC50: microsomes of CHO-K1 cells expressing human mPGES-1, PGH2 1 μM, PGE2 by HTRF, read-out: mPGES-1 inhibition (IC50 nM)
In short: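 PGE2 formation was quantified by HTRF and reported as percent inhibition at 10 and 100 nM compound or as IC50. The 60-second reaction at 4° C used 1 μM PGH2, after a 20-minute 4° C preincubation of compound (1% DMSO final) with glutathione-supplemented (2.5 mM, pH 7.4) microsomes. The microsomes were from transiently transfected CHO-K1 cells expressing human mPGES-1.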

human A549 cells = test: Inhibition test of PGE2 production using human A549 cells; type: cell-based; conditions: IL-1β stimulated A549 cells, 24 h, PGE2 by HTRF, read-out: A549 cell inhibition of PGE2 production IC50
In short: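 A549 cells were preincubated 60 min with compound in RPMI/3% FBS (0.1% DMSO final), then stimulated with IL-1β (5 ng/well) for 24 h at 37°C. PGE2 was measured by HTRF and PGF2a by EIA; activity was normalized to stimulated minus unstimulated controls, and IC50 derived.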

Sequence of human mPGES-1 (O14684 whole entry): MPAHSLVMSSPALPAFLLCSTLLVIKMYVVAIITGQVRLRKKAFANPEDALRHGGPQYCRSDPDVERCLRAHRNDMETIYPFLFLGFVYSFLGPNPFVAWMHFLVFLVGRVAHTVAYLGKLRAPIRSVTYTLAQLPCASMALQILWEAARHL

Structure (SMILES)	inhibition at 0.01 µM (human mPGES-1)	IC50 (human A549 cells)	inhibition at 0.1 µM (human mPGES-1)	IC50 (human mPGES-1)
Cc1ccc(-n2ncc3c(NC(=O)c4cc(CNS(=O)(=O)C5CC5)ccc4Cl)cccc32)cc1Cl [Example 132, 2-Chloro-N-[1-(3-chloro-4-methylphenyl)-1H-indazol-4-yl]-5-{[(cyclopropylsulfonyl)amino]methyl}benzamide]	86%	1.5 nM	–	–
O=C(Nc1cccc2c1cnn2-c1ccc(OC(F)(F)F)cc1)c1cc(CNC(=O)C2(C(F)(F)F)CC2)ccc1Cl [Example 116, 2-Chloro-N-{1-[4-(trifluoromethoxy)phenyl]-1H-indazol-4-yl}-5-[({[1-(trifluoromethyl)cyclopropyl]carbonyl}amino)methyl]benzamide]	68%	0.6 nM	100%	–
COCc1ccc(-n2ncc3c(NC(=O)c4cc(CNC(=O)C(C)(C)C)ccc4Cl)cccc32)cn1 [Example 74, 2-Chloro-5-{[(2,2-dimethylpropanoyl)amino]methyl}-N-{1-[6-(methoxymethyl)pyridin-3-yl]-1H-indazol-4-yl}benzamide hydrochloride]	–	15.6 nM	–	1.3 nM
CC(C)(C)C(=O)NCc1ccc(Cl)c(C(=O)Nc2cccc3c2cnn3CCc2ccccc2)c1 [Example 95, 2-Chloro-5-{[(2,2-dimethylpropanoyl)amino]methyl}-N-[1-(2-phenylethyl)-1H-indazol-4-yl]benzamide]	–	2.7 nM	–	1.2 nM
O=C(Nc1cccc2c1cnn2-c1cccc(C(F)(F)F)c1)c1cc(CNC(=O)C2(O)CC2)ccc1Cl [Example 221, 2-Chloro-5-({[(1-hydroxycyclopropyl)carbonyl]amino}methyl)-N-{1-[3-(trifluoromethyl)phenyl]-1H-indazol-4-yl}benzamide]	65%	2.6 nM	100%	–
O=C(Nc1cccc2c1cnn2-c1ccc(C(F)(F)F)nc1)c1cc(CNC(=O)C2CCCC2)ccc1Cl [Example 174, 2-Chloro-5-{[(cyclopentylcarbonyl)amino]methyl}-N-{1-[6-(trifluoromethyl)pyridin-3-yl]-1H-indazol-4-yl}benzamide]	85%	1.9 nM	86%	–
CC(C)(C)C(=O)NCc1ccc(Cl)c(C(=O)Nc2cccc3c2cnn3-c2cscn2)c1 [Example 83, 2-Chloro-5-{[(2,2-dimethylpropanoyl)amino]methyl}-N-[1-(1,3-thiazol-4-yl)-1H-indazol-4-yl]benzamide]	–	5.3 nM	–	1.5 nM
CC(C)(C)C(=O)NCc1ccc(C(F)(F)F)c(C(=O)Nc2cccc3c2cnn3-c2ccc(C(F)(F)F)nc2)c1 [Example 196, 5-{[(2,2-Dimethylpropanoyl)amino]methyl}-2-(trifluoromethyl)-N-{1-[6-(trifluoromethyl)pyridin-3-yl]-1H-indazol-4-yl}benzamide]	60%	2 nM	78%	–
COCC(=O)NCc1ccc(Cl)c(C(=O)Nc2cccc3c2cnn3-c2ccc(C(F)(F)F)cc2)c1 [Example 21, 2-Chloro-5-{[(methoxyacetyl)amino]methyl}-N-{1-[4-(trifluoromethyl)phenyl]-1H-indazol-4-yl}benzamide]	–	68 nM	–	3.8 nM
CC(C)(C)C(=O)NCc1ccc(Cl)c(C(=O)Nc2cccc3c2cnn3CCCc2ccccc2)c1 [Example 101, 2-Chloro-5-{[(2,2-dimethylpropanoyl)amino]methyl}-N-[1-(3-phenylpropyl)-1H-indazol-4-yl]benzamide]	–	8.1 nM	–	4.7 nM
Cc1c(Cl)cccc1-n1ncc2c(NC(=O)c3cc(CNC(=O)C4CC4)ccc3Cl)cccc21 [Example 15, 2-Chloro-N-[1-(3-chloro-2-methylphenyl)-1H-indazol-4-yl]-5-{[(cyclopropylcarbonyl)amino]methyl}benzamide]	–	7.8 nM	–	5.6 nM
CC(C)(C)C(=O)NCc1ccc(Cl)c(C(=O)Nc2cccc3c2cnn3CC2CCC2)c1 [Example 99, 2-Chloro-N-[1-(cyclobutylmethyl)-1H-indazol-4-yl]-5-{[(2,2-dimethylpropanoyl)amino]methyl}benzamide]	–	4.1 nM	–	1.3 nM
